In the Kinase Knowledgebase extract (Sharma et al. 2016):

Biological target: PIK3CG (human) (UniProt P48736)
Assay: Inhibition of PIK3CG Kinase Activity

Chain of PIK3CG (human) (P48736 whole entry, looked up): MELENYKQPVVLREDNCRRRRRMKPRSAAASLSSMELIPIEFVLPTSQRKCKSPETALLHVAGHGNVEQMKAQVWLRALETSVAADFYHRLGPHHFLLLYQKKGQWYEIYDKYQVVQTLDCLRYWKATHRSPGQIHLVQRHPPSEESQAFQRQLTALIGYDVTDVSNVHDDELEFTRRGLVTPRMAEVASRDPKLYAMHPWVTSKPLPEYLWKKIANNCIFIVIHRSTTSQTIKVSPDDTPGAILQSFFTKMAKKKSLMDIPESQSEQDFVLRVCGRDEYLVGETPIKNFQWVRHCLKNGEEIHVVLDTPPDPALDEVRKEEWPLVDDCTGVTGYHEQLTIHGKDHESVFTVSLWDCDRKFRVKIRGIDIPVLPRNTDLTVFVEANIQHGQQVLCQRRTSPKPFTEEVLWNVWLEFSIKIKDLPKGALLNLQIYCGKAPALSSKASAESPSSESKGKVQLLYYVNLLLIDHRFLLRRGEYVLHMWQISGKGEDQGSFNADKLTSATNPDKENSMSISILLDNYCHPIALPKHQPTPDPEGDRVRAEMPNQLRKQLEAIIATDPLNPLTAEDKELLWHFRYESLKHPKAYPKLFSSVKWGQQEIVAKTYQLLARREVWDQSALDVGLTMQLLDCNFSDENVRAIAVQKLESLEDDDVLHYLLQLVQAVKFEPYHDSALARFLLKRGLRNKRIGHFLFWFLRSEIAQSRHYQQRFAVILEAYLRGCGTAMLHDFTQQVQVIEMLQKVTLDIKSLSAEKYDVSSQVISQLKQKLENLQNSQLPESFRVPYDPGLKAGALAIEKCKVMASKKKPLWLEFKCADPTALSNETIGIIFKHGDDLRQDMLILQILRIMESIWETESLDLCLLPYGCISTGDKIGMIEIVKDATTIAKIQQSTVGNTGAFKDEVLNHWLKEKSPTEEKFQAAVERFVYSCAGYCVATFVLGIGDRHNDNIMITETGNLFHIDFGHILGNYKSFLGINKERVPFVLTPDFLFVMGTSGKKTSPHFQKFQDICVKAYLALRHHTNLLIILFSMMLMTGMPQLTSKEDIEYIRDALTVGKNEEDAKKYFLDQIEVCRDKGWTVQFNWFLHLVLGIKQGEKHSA

IC50 | SMILES
< 10 µM | Nc1nc2ccc(-c3cccc(S(=O)(=O)NCCO)c3)cn2n1
< 10 µM | Nc1nc2ccc(-c3cncc(S(=O)(=O)Nc4ccc(C(F)(F)F)cc4)c3)cn2n1
< 10 µM | Nc1nc2ccc(-c3cncc(S(=O)(=O)Nc4cccc(OC(F)(F)F)c4)c3)cn2n1
< 10 µM | Nc1nc2c(F)cc(-c3cncc(C(F)(F)F)c3)cn2n1
< 10 µM | CN(C)C(=O)CNS(=O)(=O)c1cncc(-c2ccc3nc(N)nn3c2)c1
< 10 µM | CN(C)CCN(C)S(=O)(=O)c1cccc(-c2ccc3nc(N)nn3c2)c1
< 10 µM | Nc1nc2ccc(-c3cncc(S(=O)(=O)NCc4ccccc4)c3)cn2n1
< 10 µM | Nc1nc2ccc(-c3cncc(NS(=O)(=O)c4cc(C(F)(F)F)cc(C(F)(F)F)c4)c3)cn2n1
< 10 µM | Nc1nc2ccc(-c3cncc(NS(=O)(=O)Cc4ccc(Cl)cc4)c3)cn2n1
< 10 µM | Nc1nc2ccc(-c3cccc(O)c3)cn2n1
< 10 µM | Nc1nc2ccc(-c3cncc(S(=O)(=O)N4CCCCC4)c3)cn2n1
< 10 µM | CCCCN(Cc1ccccc1)S(=O)(=O)c1cncc(-c2ccc3nc(N)nn3c2)c1
< 10 µM | CC(C)c1ccc(S(=O)(=O)Nc2cncc(-c3ccc4nc(N)nn4c3)c2)cc1
< 10 µM | Nc1nc2ccc(-c3cncc(S(=O)(=O)NCCC(F)(F)F)c3)cn2n1
< 10 µM | Nc1nc2ccc(-c3cncc(S(N)(=O)=O)c3)cn2n1
< 10 µM | CCN(C)S(=O)(=O)c1cncc(-c2ccc3nc(N)nn3c2)c1
< 10 µM | CC1(NS(=O)(=O)c2cncc(-c3ccc4nc(N)nn4c3)c2)CCC1
< 10 µM | CC(C)(C)COc1cncc(-c2ccc3nc(N)nn3c2)c1
< 10 µM | CCCCNS(=O)(=O)c1cccc(-c2ccc3nc(N)nn3c2)c1
< 10 µM | CCCCN(C)S(=O)(=O)c1cncc(-c2ccc3nc(N)nn3c2)c1
< 10 µM | COc1ccc(-c2cn3nc(N)nc3cc2C)cc1OC
< 10 µM | CS(=O)(=O)c1cccc(-c2ccc3nc(N)nn3c2)c1
< 10 µM | COc1cccc(-c2ccc3nc(N)nn3c2)c1

IC50 | SMILES
< 10 µM | COc1ccc(-c2ccc3nc(N)nn3c2)cc1
< 10 µM | Nc1nc2ccc(-c3cccc(F)c3)cn2n1
< 10 µM | CN1CCN(S(=O)(=O)c2cncc(-c3ccc4nc(N)nn4c3)c2)CC1
< 10 µM | COc1cc(-c2ccc3nc(N)nn3c2)cc(OC)c1OC
< 10 µM | COc1ccccc1NS(=O)(=O)c1cncc(-c2ccc3nc(N)nn3c2)c1
< 10 µM | CCC(CC)CNS(=O)(=O)c1cncc(-c2ccc3nc(N)nn3c2)c1
< 10 µM | Nc1nc2ccc(-c3cncc(S(=O)(=O)N4CCOCC4)c3)cn2n1
< 10 µM | CC(C)(C)NS(=O)(=O)c1cncc(-c2ccc3nc(N)nn3c2)c1
< 10 µM | Nc1nc2ccc(-c3ccccc3)cn2n1
< 10 µM | Nc1nc2ccc(-c3cncc(S(=O)(=O)Nc4ccc(Cl)cc4)c3)cn2n1
< 10 µM | Nc1nc2ccc(-c3cncc(S(=O)(=O)Nc4cccc(OC(F)(F)C(F)F)c4)c3)cn2n1
< 10 µM | Nc1nc2c(F)cc(-c3cncc(S(=O)(=O)NCC(F)(F)F)c3)cn2n1
< 10 µM | CC(C)(C)NC(=O)c1cncc(-c2ccc3nc(N)nn3c2)c1
< 10 µM | Nc1nc2ccc(-c3cncc(S(=O)(=O)NCCN4CCNC4=O)c3)cn2n1
< 10 µM | NC(=O)c1ccc(-c2ccc3nc(N)nn3c2)cc1
< 10 µM | Nc1nc2ccc(-c3cncc(S(=O)(=O)N4CCC(F)(F)CC4)c3)cn2n1
< 10 µM | Nc1nc2ccc(-c3cncc(S(=O)(=O)Nc4cccc(F)c4)c3)cn2n1
< 10 µM | Nc1nc2ccc(-c3cncc(S(=O)(=O)NC4CCCC4)c3)cn2n1
< 10 µM | CC(C)CCNS(=O)(=O)c1cncc(-c2ccc3nc(N)nn3c2)c1
< 10 µM | Nc1nc2ccc(-c3cncc(S(=O)(=O)NCC4CCCCCC4)c3)cn2n1
< 10 µM | Nc1nc2ccc(-c3cncc(S(=O)(=O)N4CCNCC4)c3)cn2n1
< 10 µM | CCCNS(=O)(=O)c1cncc(-c2ccc3nc(N)nn3c2)c1
< 10 µM | COc1cc(-c2ccc3nc(N)nn3c2)ccc1OC(C)C

IC50 | SMILES
< 10 µM | Nc1nc2ccc(-c3cncc(S(=O)(=O)NCc4ccc(F)cc4)c3)cn2n1
< 10 µM | COc1ccc(-c2cc(C)c3nc(N)nn3c2)cc1OC
< 10 µM | Nc1nc2ccc(-c3ccncc3)cn2n1
< 10 µM | Nc1nc2ccc(-c3cncc(S(=O)(=O)N4CCCCCC4)c3)cn2n1
< 10 µM | CCCCNS(=O)(=O)c1cncc(-c2ccc3nc(N)nn3c2)c1
< 10 µM | Nc1nc2ccc(-c3cccs3)cn2n1
< 10 µM | Nc1nc2ccc(-c3cncc(S(=O)(=O)NC4CC4)c3)cn2n1
< 10 µM | Nc1nc2ccc(-c3ccc(F)c(F)c3)cn2n1
< 10 µM | Nc1nc2ccc(-c3cncc(NS(=O)(=O)c4ccccc4C(F)(F)F)c3)cn2n1
< 10 µM | Cc1nc(C)c(CNS(=O)(=O)c2cncc(-c3ccc4nc(N)nn4c3)c2)o1
< 10 µM | Nc1nc2ccc(-c3cncc(S(=O)(=O)NCC(F)(F)F)c3)cn2n1
< 10 µM | Nc1nc2ccc(-c3cncc(S(=O)(=O)N4CCc5ccccc5C4)c3)cn2n1
< 10 µM | Nc1nc2ccc(-c3cncc(C(F)(F)F)c3)cn2n1
< 10 µM | Nc1nc2ccc(-c3cncc(S(=O)(=O)Nc4cccc(F)c4F)c3)cn2n1
< 10 µM | COc1ccc(-c2ccc3nc(N)nn3c2)cc1OC
< 10 µM | CN(C)S(=O)(=O)c1cncc(-c2ccc3nc(N)nn3c2)c1
< 10 µM | Nc1nc2ccc(-c3cncc(S(=O)(=O)NCc4cccc(Cl)c4Cl)c3)cn2n1
< 10 µM | CC(C)(C)CNS(=O)(=O)c1cncc(-c2ccc3nc(N)nn3c2)c1
< 10 µM | CC(C)(C)S(=O)(=O)c1cncc(-c2ccc3nc(N)nn3c2)c1
< 10 µM | Nc1nc2ccc(-c3cncc(Cl)c3)cn2n1
< 10 µM | CCNS(=O)(=O)c1cncc(-c2ccc3nc(N)nn3c2)c1
< 10 µM | COc1ccc(-c2ccc3nc(N)nn3c2)cc1OC(C)C
< 10 µM | CC(C)(NS(=O)(=O)c1cncc(-c2ccc3nc(N)nn3c2)c1)C(F)(F)F

IC50 | SMILES
< 10 µM | Nc1nc2ccc(-c3cncnc3)cn2n1
< 10 µM | CN(Cc1ccccc1)S(=O)(=O)c1cncc(-c2ccc3nc(N)nn3c2)c1
< 10 µM | CN(C)CCCNS(=O)(=O)c1cncc(-c2ccc3nc(N)nn3c2)c1
< 10 µM | Nc1nc2ccc(-c3cccc(S(=O)(=O)NCCCC(=O)O)c3)cn2n1
< 10 µM | CCN(CC)S(=O)(=O)c1cncc(-c2ccc3nc(N)nn3c2)c1
< 10 µM | Nc1nc2ccc(-c3cncc(S(=O)(=O)Nc4ccc(F)cc4)c3)cn2n1
< 10 µM | Nc1nc2ccc(-c3cncc(S(=O)(=O)NCc4ccc(Cl)c(Cl)c4)c3)cn2n1
< 10 µM | Nc1nc2ccc(-c3cncc(S(=O)(=O)NC4CCOCC4)c3)cn2n1
< 10 µM | CS(=O)(=O)c1cncc(-c2ccc3nc(N)nn3c2)c1
< 10 µM | CC(C)CNS(=O)(=O)c1cncc(-c2ccc3nc(N)nn3c2)c1
< 10 µM | Nc1nc2ccc(-c3cccc(C(F)(F)F)c3)cn2n1
< 10 µM | CS(=O)(=O)c1cccc(-c2cc(F)c3nc(N)nn3c2)c1
< 10 µM | Nc1nc2ccc(-c3cncc(S(=O)(=O)Nc4ccccc4F)c3)cn2n1
< 10 µM | Nc1nc2ccc(-c3cncc(S(=O)(=O)NCC4CC4)c3)cn2n1
< 10 µM | CN(C)CCCNS(=O)(=O)c1cccc(-c2ccc3nc(N)nn3c2)c1
< 10 µM | Nc1nc2ccc(-c3ccc4c(c3)OCCO4)cn2n1
< 10 µM | COc1ccc(-c2ccc3nc(NC(N)=O)nn3c2)cc1OC
< 10 µM | Cn1cc(-c2ccc3nc(N)nn3c2)cn1
< 10 µM | CC(C)c1ccccc1NS(=O)(=O)c1cncc(-c2ccc3nc(N)nn3c2)c1
< 10 µM | Nc1nc2ccc(-c3cncc(NS(=O)(=O)Cc4ccc(C(F)(F)F)cc4)c3)cn2n1
< 10 µM | Nc1nc2ccc(-c3cncc(S(=O)(=O)Nc4ccc(OC(F)(F)F)cc4)c3)cn2n1
< 10 µM | Nc1nc2ccc(-c3ccc(F)cc3)cn2n1
< 10 µM | Nc1nc2ccc(-c3cnc(N)c(C(F)(F)F)c3)cn2n1

IC50 | SMILES
< 10 µM | CN(Cc1cccc(Cl)c1Cl)S(=O)(=O)c1cncc(-c2ccc3nc(N)nn3c2)c1
< 10 µM | Nc1nc2ccc(-c3cncc(NS(=O)(=O)c4cccc(C(F)(F)F)c4)c3)cn2n1
< 10 µM | Nc1nc2ccc(-c3cncc(S(=O)(=O)N4CCC(F)CC4)c3)cn2n1
< 10 µM | Nc1nc2ccc(-c3cccc(C(=O)O)c3)cn2n1
< 10 µM | Nc1nc2ccc(-c3cncc(NS(=O)(=O)Cc4ccccc4C(F)(F)F)c3)cn2n1
< 10 µM | Nc1nc2ccc(-c3cncc(OCc4ccccc4)c3)cn2n1
< 10 µM | CN(C(C)(C)C)S(=O)(=O)c1cncc(-c2ccc3nc(N)nn3c2)c1
< 10 µM | CC(C)(NS(=O)(=O)c1cncc(-c2ccc3nc(N)nn3c2)c1)c1ccc(F)cc1
< 10 µM | CN(C)CCN(C)S(=O)(=O)c1cncc(-c2ccc3nc(N)nn3c2)c1
< 10 µM | COc1ccccc1-c1ccc2nc(N)nn2c1
< 10 µM | CNS(=O)(=O)c1cncc(-c2ccc3nc(N)nn3c2)c1
< 10 µM | Nc1nc2ccc(-c3cccc(S(=O)(=O)NCCCCC(=O)O)c3)cn2n1
< 10 µM | Nc1nc2ccc(-c3cncc(Oc4ccccc4)c3)cn2n1
< 10 µM | Nc1nc2ccc(-c3cncc(NS(=O)(=O)c4cccc5ccccc45)c3)cn2n1
< 10 µM | Nc1nc2ccc(-c3cncc(S(=O)(=O)Nc4ccccc4C(F)(F)F)c3)cn2n1
< 10 µM | Nc1nc2ccc(-c3cncc(S(=O)(=O)Nc4ccc(OC(F)F)cc4)c3)cn2n1
< 10 µM | CNS(=O)(=O)c1cncc(-c2cc(F)c3nc(N)nn3c2)c1
< 10 µM | Nc1nc2ccc(-c3cn[nH]c3)cn2n1
< 10 µM | CC(C)(C)NS(=O)(=O)c1cccc(-c2ccc3nc(N)nn3c2)c1
< 10 µM | Nc1nc2ccc(-c3cncc(S(=O)(=O)NC4CCCCC4)c3)cn2n1
< 10 µM | Nc1nc2ccc(-c3cncc(S(=O)(=O)Nc4cc(C(F)(F)F)cc(C(F)(F)F)c4)c3)cn2n1
< 10 µM | Nc1nc2ccc(-c3cncc(S(=O)(=O)Nc4ccccc4)c3)cn2n1
< 10 µM | CN(c1cccc(C(F)(F)F)c1)S(=O)(=O)c1cncc(-c2ccc3nc(N)nn3c2)c1
